Read-outs that look alike come from different tables or passages of the source.
Legend:
influenza A virus [1] = format: cell-based
[2] = Cytotoxicity assay (MTT), MDCK cells; format: cell-based, canine; conditions: dog; for CC50 at 72 h: MDCK cells, MTT, read-out: CC50 (50% cytotoxic concentration)
A/California/2/2014 H3N2 = assay: microbe, parasite or virus in culture; format: cell-based; conditions: Influenza A virus, H3N2, MDCK, 72 h
[3] = test system: A549 cells infected with A/Weiss/43 H1N1; format: cell-based; conditions: 24 h
[4] = test system: A/Virginia/ATCC2/2009 H1N1; assay: microbe, parasite or virus in culture; format: cell-based; conditions: Influenza A virus, MDCK, 72 h
A/Weiss/43 H1N1 [5] = assay: Infected mouse model: lung index, symptoms; format: in vivo, BALB/c mice; conditions: for clinical symptoms of infected mice: intragastric once a day for six days
A/Weiss/43 H1N1 [6] = format: cell-based, influenza A virus; conditions: 6.25–100 µM
[7] = test system: A/Weiss/43 H1N1-induced apoptosis in A549 cells; format: cell-based; conditions: 24 h post-infection
IAV = assay: microbe, parasite or virus in culture; format: cell-based; conditions: Influenza A virus, ATCC2|H1N1|H3N2, MDCK, read-out: EC50 values (range over IAV strains)
[8] = test system: pro-inflammatory cytokines (TNF-α, IL-1β, IL-6, and IL-8); assay: Cytokine mRNA in lungs of infected mice (qRT-PCR); format: in vivo, BALB/c mice; conditions: two, four and six days post-infection
A/Weiss/43 H1N1 [9] = assay: Viral NP mRNA in lungs of infected mice (qRT-PCR); format: in vivo, BALB/c mice; conditions: two, four and six days post-infection
[10] = test system: A549 cells infected with A/Weiss/43 H1N1; format: cell-based; conditions: 24 h post-infection
A/Weiss/43 H1N1 [11] = format: cell-based, influenza A virus
in vitro = format: cell-based; conditions: human
influenza A virus [12] = format: cell-based; remark: listed apart in the source
A/Weiss/43 H1N1 [13] = assay: microbe, parasite or virus in culture; conditions: Influenza A virus, H1N1, MDCK, 72 h, read-out: EC50 (50% effective concentration)
A/Weiss/43 H1N1 [14] = test system: A/Weiss/43 H1N1
[15] = 50 mg/kg/d intragastric, six days post infection
[16] = 100 mg/kg/d intragastric, six days post infection

## COC1=C(c2ccc(Cl)cc2)C(=O)OC1(C)COS(=O)(=O)Cc1ccccc1 (stereo not shown) [Compound 3D]
Influenza A virus [1]
  inhibitory effect on viral replication, added before viral adsorption: almost no inhibitory effects
  inhibitory effect, added during viral inoculation: slight inhibitory effect
  protective effect, added after viral adsorption: significant protective effect
[2]
  viability at 72 h, 800 µM: ~40%
  CC50 at 72 h: 365 ± 1.58 µM
A/California/2/2014 H3N2
  EC50: 24.1 ± 1.16 µM
[3]; 30, 50, 80 µM
  expression of influenza M2 protein: inhibited
[3]; A549 cells
  IAV-induced upregulation of Bax/Bcl-2: reduced this upregulation
[4]
  EC50: 18.1 ± 2.6 µM
A/Weiss/43 H1N1 [5]; 25 mg/kg/d intragastric, six days post infection
  Inhibition ratio of lung index: 11.35%
A/Weiss/43 H1N1 [5]; 25 mg/kg/d intragastric, six days post infection (virus control 1.70 ± 0.06)
  Lung Index: 1.51 ± 0.06
A/Weiss/43 H1N1 [5]; [15]
  Inhibition ratio of lung index: 28.47%
  Lung Index: 1.22 ± 0.09
A/Weiss/43 H1N1 [5]; [16]
  Inhibition ratio of lung index: 33.21%
  Lung Index: 1.14 ± 0.05
A/Weiss/43 H1N1 [5]
  clinical symptoms of infected mice: relieve these symptoms
A/Weiss/43 H1N1 [5]; six days post infection
  lung indexes versus virus control group (in words): significantly lower than those in the virus control group
A/Weiss/43 H1N1 [6]
  levels of NP mRNA in IAV-infected MDCK cells: decrease in the levels of NP mRNA
[7]; 30 µM, infected A549 cells (virus control 32.85 ± 3.05%)
  apoptosis rate: 21.93 ± 0.97%
[7]; 50 µM, infected A549 cells
  apoptosis rate: 15.17 ± 2.87%
[7]; 80 µM, infected A549 cells
  apoptosis rate: 7.23 ± 1.30%
IAV
  EC50: 12.3 to 24.1 µM
[8]
  expressions of pro-inflammatory cytokines in mouse lungs: inhibit the increased expressions of pro-inflammatory cytokines
A/Weiss/43 H1N1 [9]
  expression of viral NP mRNA in IAV infected lungs: decreased the expression of viral NP mRNA in a dose-dependent manner
[10]
  mRNA expression of RIG-I, MAVS, TLR3, IRF3, IRF7: levels decreased
[10]; dose-dependent
  mRNA expression of cytokines and chemokines (IL-1β, IL-6, IL-8, TNF-α): significantly decreased
A/Weiss/43 H1N1 [11]
  virus titers of A549 cells: significantly decreased
In vitro
  CC50 at 72 h: 309 ± 9.96 µM
  viability at 72 h, 800 µM: ~40%
Influenza A virus [12]
  levels of NP mRNA, time-of-addition: significantly suppressed
A/Weiss/43 H1N1 [13]
  EC50: 12.3 ± 0.53 µM
A/Weiss/43 H1N1 [14]
  SI (ratio of CC50 to EC50): 29.68
  antiviral activity against A/Weiss/43 H1N1 (in words): presented the antiviral activity

## CCOC(=O)C1=C[C@@H](OC(CC)CC)[C@H](NC(C)=O)[C@@H](N)C1 [Oseltamivir, reference compound]
[2]
  CC50 at 72 h: > 800 µM
A/California/2/2014 H3N2
  EC50: 9.47 ± 2.48 µM
[4]
  EC50: 6.97 ± 0.38 µM
A/Weiss/43 H1N1 [5]; [15]
  Inhibition ratio of lung index: 35.99%
  Lung Index: 1.09 ± 0.12
A/Weiss/43 H1N1 [5]
  clinical symptoms of infected mice: relieve these symptoms
A/Weiss/43 H1N1 [5]; six days post infection
  lung indexes versus virus control group (in words): significantly lower than those in the virus control group
[8]
  expressions of pro-inflammatory cytokines in mouse lungs: inhibit the increased expressions of pro-inflammatory cytokines
A/Weiss/43 H1N1 [13]
  EC50: 0.57 ± 0.29 µM
A/Weiss/43 H1N1 [14]
  SI (ratio of CC50 to EC50): >1403.51

## NC(=O)c1ncn([C@@H]2O[C@H](CO)[C@@H](O)[C@H]2O)n1 [Ribavirin]
[2]
  CC50 at 72 h: 608 ± 34 µM
A/California/2/2014 H3N2
  EC50: 13 ± 3.74 µM
[4]
  EC50: 13.9 ± 1.06 µM
A/Weiss/43 H1N1 [5]
  clinical symptoms of infected mice: relieve these symptoms
[8]
  expressions of pro-inflammatory cytokines in mouse lungs: inhibit the increased expressions of pro-inflammatory cytokines
A/Weiss/43 H1N1 [13]
  EC50: 22.2 ± 0.76 µM
